What was measured:
HIV-1BaL = experiment: anti-viremic capacity: HIV-1BaL replication in primary human microglia, p24 accumulation; assay type: cell-based; settings: for HIV-1BaL replication, accumulation of p24 HIV capsid protein: HIV-1BaL 1 ng/mL p24, over 10 days; for effect on efficacy of cART when co-administered: co-administered with cART
Experimental: […] Corp.) as described previously.
Assessment for viremia: Media, compounds 1-6, or 3α,5α-THP was assessed in a dose-response curve (0.1, 0.3, 1, 3.2, 10, 32, 100, 320, 1×10^3, 10×10^3, 100×10^3 nM) for their anti-viremic capacity (FIG. 9). To monitor infection, samples are taken every 72 h to measure p24 or proviral DNA129-130. Infection was confirmed post-hoc via immunocytochemical imaging of HIV-1 negative regulatory factor (Nef). As needed, TZM-bl and Jurkat reporter cells were also used to determine viral proliferation.
Interactions with cART: Efficacious concentrations were re-assessed in separate mock- or HIV-1BaL-infected cultures in the presence or absence of Triumeq® [Abacavir (ABC; 10 μM)/dolutegravir (DTG; 1 nM)/lamivudine (3TC; 30 μM) dosing derived from FDA-approved insert] to assess interactions with viremic control, cytotoxicity, and cytokine production.

[1] = test system: mouse primary medium spiny neurons in mixed glial co-culture; experiment: Tat and/or gp120 neurotoxicity (necrosis, propidium iodide) in neuron/mixed glia co-culture; assay type: cell-based; settings: for baseline cell death: highest concentrations; for Tat and/or gp120-mediated necrosis / neurotoxicity: pretreatment, 0.001-10×10^3 nM, HIV-1 Tat and/or gp120 for 20 h
Experimental: The trans-diol analogue of 3α, 5α-THP, 5α-pregnan-2β,3α-diol-20-one (compound 1) was synthesized. Mixed glia (derived from 0-1 day old mouse pups) and primary medium spiny neurons (from the striatum of E17 pups) were co-cultured as previously described. Co-cultures were pretreated with a concentration-response curve (0.001-10×10^3 nM) of 3α,5α-THP or the analogue, 1, and exposed to HIV-1 Tat and/or gp120 for 20 h. Prior time-lapse experiments have identified this time-point as the earliest time at which 3α,5α-THP protection is evident. Each treatment group consisted of 3 independent observations (with 2 technical replicates each). Necrotic cells were identified via propidium iodide labeling.

[2] = rabbits or mice, cited from earlier work
[3] = women following three consecutive SC injections; cited from earlier work
[4] = test system: primary, mouse splenocytes; experiment: mitogen-stimulated proliferation of splenocytes; assay type: cell-based; settings: high concentrations
[5] = molecular target: HIV-1 trans-activation response element; settings: read-out: affinity; cited from earlier work

**Q.** With `CC(=O)[C@H]1CC[C@H]2[C@@H]3CC[C@H]4C[C@H](O)CC[C@]4(C)[C@H]3CC[C@]12C` [3α,5α-THP, 5α-pregnan-3α-ol-20-one] as the compound, how does the “HIV-1BaL replication, accumulation of p24 HIV capsid protein” value (HIV-1BaL) read?
**A.** attenuates

**Q.** What about the “effect on efficacy of cART when co-administered” value (HIV-1BaL) of the same compound?
**A.** Neither AlloP nor 1 impairs the efficacy of cART

**Q.** What about the “increase in cell death” value ([1]; at 10 nM) of the same compound?
**A.** 5.7%

**Q.** What about the baseline cell death [1] of the same compound?
**A.** increased baseline cell death modestly

**Q.** And the “Tat and/or gp120-mediated necrosis / neurotoxicity” value [1]?
**A.** significantly attenuated necrosis at every dose assessed

**Q.** And the “elimination half-life (t1/2z)” value ([2]; administered subcutaneously)?
**A.** 0.2 to 0.667 h

**Q.** And the “elimination half-life (t1/2z) in brain” value ([2]; infused IV)?
**A.** ~4 h

**Q.** What about the plasma clearance [3] of the same compound?
**A.** ~4 h

**Q.** Which “HIV-1BaL replication, accumulation of p24 HIV capsid protein” value (HIV-1BaL) does the source give for `CC(=O)[C@H]1CC[C@H]2[C@@H]3CC[C@H]4C[C@H](O)[C@@H](O)C[C@]4(C)[C@H]3CC[C@]12C` [compound 1, 2β,3α-dihydroxy-5α-pregnan-20-one] here?
**A.** attenuates

**Q.** And the “effect on efficacy of cART when co-administered” value (HIV-1BaL)?
**A.** Neither AlloP nor 1 impairs the efficacy of cART

**Q.** And the “potency in ameliorating Tat-neurotoxicity relative to 3α,5α-THP” value [1]?
**A.** equipotent to 3α,5α-THP

**Q.** And the “increase in cell death” value ([1]; at 1 nM)?
**A.** 8.8%

**Q.** And the “increase in cell death” value ([1]; at 10 nM)?
**A.** 10.5%

**Q.** And the baseline cell death [1]?
**A.** increased baseline cell death modestly

**Q.** What about the “Tat and/or gp120-mediated necrosis / neurotoxicity” value ([1]; listed as analogue 1) of the same compound?
**A.** significantly attenuated necrosis at every dose assessed

**Q.** With `C[C@]12C[C@H](O)[C@H]3[C@@H](CCC4=CC(=O)CC[C@@]43C)[C@@H]1CC[C@@H]2C(=O)CO` [corticosterone] as the compound, how does the mitogen-stimulated proliferation [4] read?
**A.** reduce mitogen-stimulated proliferation

**Q.** With `CN(C)[C@H]1C[C@@]23CC[C@@]4(O2)C(=CC[C@]2(C)C(c5ccc6ccncc6c5)=CC[C@H]24)C=C3[C@@H](O)[C@@H]1O` [dCA, didehydro-cortistatin A] as the compound, how does the Kd [5] read?
**A.** 1 to 2 nM

Source: patent publication US20250000875A1, “ALLOPREGNANOLONE ANALOGUES FOR HIV VIREMIA AND NEUROTOXICITY PROTECTION” (priority 2021, published 2025)
